Columns and labels:
[1] = system: beet armyworm (BAW; Spodoptera exigua: Lepidoptera); assay: 96-well microtiter plate-based high throughput (HTS) diet bioassay on beet armyworm (BAW HTS); format: in vivo; conditions: BAW eggs, 12 μg test compound per well, mortality at 6 d post-treatment, mortality class
Experimental: (§1) Bioassays on beet armyworm (BAW; Spodoptera exigua: Lepidoptera) were conducted using either a 96-well microtiter plate-based high throughput (HTS) bioassay or a 128-well diet tray assay. The HTS assay is a based on a modification of Lewer et al. J. Nat. Prod. 2006, 69, 1506. BAW eggs of were placed on top of artificial diet (100 μl) in each well of 96-well microtiter plate. The diet was pretreated with test compounds (12 μg dissolved in 30 μL of DMSO-acetone-water mixture) layered on top of the diet using a liquid handling system and then allowed to dry for several hours. Infested plates were then covered with a layer of sterile cotton batting and the plate lid, and then held in the dark at 29° C. Mortality was recoded at 6 d post-treatment. Each plate had six replicates. The percent mortality was calculated from the average of the six replicates. In the case of the 128-well diet assay, three to five second instar BAW larvae were placed in each well (3 mL) of the diet tray that had been previously filled with 1 mL of artificial diet to which 50 μg/cm^2 of the test compound (dissolved in 50 μL of 90:10 acetone-water mixture) had been applied (to each of eight wells) and then allowed to dry. Trays were covered with a clear self-adhesive cover, and held at 25° C., 14:10 light-dark for six days. Percent mortality was recorded for the larvae in each well; activity in the eight wells was then averaged. In Table 7, under the BAW HTS or BAW 50 heading, an “A” means that the compound was tested and at least 50 percent mortality was observed whereas, “B” means that either (1) the compound was tested and less than 50 percent mortality was observed or (2) the compound was not tested.

[2] = system: beet armyworm (BAW; Spodoptera exigua: Lepidoptera); assay: 128-well diet tray assay on beet armyworm (BAW 50); format: in vivo
Experimental: as §1

[3] = 96-well microtiter plate HTS diet assay
[4] = 128-well diet tray assay; 50 μg/cm^2 of test compound on diet; second instar BAW larvae; mortality class
[5] = 128-well diet tray assay, second instar BAW larvae, 50 μg/cm^2 of test compound on diet; mortality class

SMILES	BAW HTS ([1]; 96-well HTS diet bioassay)	BAW HTS [1, 3]	BAW 50 ug/cm2 [2, 4]	BAW HTS ([1]; 96-well HTS diet assay)	BAW 50 ug/cm2 [2, 5]
CCC(O)c1ccc(-n2ccc(-c3ccc(C=NOC4OC(C)C(OC)C(OC)C4OC)cc3)n2)cc1 (mixture of isomers) [Compound 5]	B (either (1) the compound was tested and less than 50 percent mortality was observed or (2) the compound was not tested)	B (either (1) the compound was tested and less than 50 percent mortality was observed or (2) the compound was not tested)	A (the compound was tested and at least 50 percent mortality was observed)		
CCOC(=O)C1CC(c2ccc(C=NOC3OC(C)C(OC)C(OC)C3OC)cc2)=NN1c1ccc(OC(F)(F)F)cc1 (mixture of isomers) [Compound 13]	B (either (1) the compound was tested and less than 50 percent mortality was observed or (2) the compound was not tested)	B (either (1) the compound was tested and less than 50 percent mortality was observed or (2) the compound was not tested)	A (the compound was tested and at least 50 percent mortality was observed)		
COC1C(C)OC(ON=Cc2ccc(C3=NN(c4ccc(OC(F)(F)F)cc4)C(C(=O)OCC(C)C)C3)cc2)C(OC)C1OC (mixture of isomers) [Compound 14]	B (either (1) the compound was tested and less than 50 percent mortality was observed or (2) the compound was not tested)	B (either (1) the compound was tested and less than 50 percent mortality was observed or (2) the compound was not tested)	B (either (1) the compound was tested and less than 50 percent mortality was observed or (2) the compound was not tested)		
CCOC1C(OC)C(C)OC(ON=Cc2ccc(C3NC(c4ccc(OC(F)(F)F)cc4)=NO3)cc2)C1OC (mixture of isomers) [Compound 130]	A (the compound was tested and at least 50 percent mortality was observed)	A (the compound was tested and at least 50 percent mortality was observed)	A (the compound was tested and at least 50 percent mortality was observed)		
CCOC1C(OC)C(C)OC(OC(=O)Nc2ccc(C3=NN(c4ccc(OC(F)(F)C(F)(F)F)cc4)CC3CN(C)C)cc2)C1OC (mixture of isomers) [Compound 180]		B (either (1) the compound was tested and less than 50 percent mortality was observed or (2) the compound was not tested)	A (the compound was tested and at least 50 percent mortality was observed)	B (either (1) the compound was tested and less than 50 percent mortality was observed or (2) the compound was not tested)	
COC1CC(OC(=O)Nc2ccc(-c3ncn(-c4ccc(OC(F)(F)C(F)(F)F)cc4)n3)cc2)OC(C)C1O (mixture of isomers) [Compound 244]		B (either (1) the compound was tested and less than 50 percent mortality was observed or (2) the compound was not tested)	A (the compound was tested and at least 50 percent mortality was observed)	B (either (1) the compound was tested and less than 50 percent mortality was observed or (2) the compound was not tested)	
CCOC1C(OC)C(C)OC(OC(=O)Nc2ccc(C3=NC(c4ccc(OC(F)(F)F)cc4)CO3)cc2)C1OC (mixture of isomers) [Compound 247]		B (either (1) the compound was tested and less than 50 percent mortality was observed or (2) the compound was not tested)	A (the compound was tested and at least 50 percent mortality was observed)	B (either (1) the compound was tested and less than 50 percent mortality was observed or (2) the compound was not tested)	
COc1cccc(-c2cnn(-c3ccc(C=NOC4OC(C)C(OC)C(OC)C4OC)cc3)c2)c1 (stereo not drawn) [Compound 1]	A (the compound was tested and at least 50 percent mortality was observed)			A (the compound was tested and at least 50 percent mortality was observed)	B (either (1) the compound was tested and less than 50 percent mortality was observed or (2) the compound was not tested)
COC1C(C)OC(ON=Cc2ccc(-n3ccc(-c4ccc(Cl)cc4)n3)cc2)C(OC)C1OC (stereo not drawn) [Compound 2]	A (the compound was tested and at least 50 percent mortality was observed)			A (the compound was tested and at least 50 percent mortality was observed)	B (either (1) the compound was tested and less than 50 percent mortality was observed or (2) the compound was not tested)
COC1C(C)OC(ON=Cc2ccc(-n3ccc(-c4ccccn4)n3)cc2)C(OC)C1OC (stereo not drawn) [Compound 3]	A (the compound was tested and at least 50 percent mortality was observed)			A (the compound was tested and at least 50 percent mortality was observed)	B (either (1) the compound was tested and less than 50 percent mortality was observed or (2) the compound was not tested)
COC1C(C)OC(ON=Cc2ccc(-n3ccc(-c4cccs4)n3)cc2)C(OC)C1OC (stereo not drawn) [Compound 4]	B (either (1) the compound was tested and less than 50 percent mortality was observed or (2) the compound was not tested)			B (either (1) the compound was tested and less than 50 percent mortality was observed or (2) the compound was not tested)	B (either (1) the compound was tested and less than 50 percent mortality was observed or (2) the compound was not tested)
COC1C(C)OC(ON=Cc2ccc(-c3ccn(-c4ccc(SC(F)(F)F)cc4)n3)cc2)C(OC)C1OC (stereo not drawn) [Compound 6]	B (either (1) the compound was tested and less than 50 percent mortality was observed or (2) the compound was not tested)	B (either (1) the compound was tested and less than 50 percent mortality was observed or (2) the compound was not tested)	A (the compound was tested and at least 50 percent mortality was observed)		
COC1C(C)OC(ON=Cc2ccc(-c3ccn(-c4ccc(OC(F)(F)C(F)F)cc4)n3)cc2)C(OC)C1OC (stereo not drawn) [Compound 7]	B (either (1) the compound was tested and less than 50 percent mortality was observed or (2) the compound was not tested)	B (either (1) the compound was tested and less than 50 percent mortality was observed or (2) the compound was not tested)	A (the compound was tested and at least 50 percent mortality was observed)		
COC1C(C)OC(ON=Cc2ccc(-c3ccn(-c4ccc(OC(F)(F)C(F)(F)F)cc4)n3)cc2)C(OC)C1OC (stereo not drawn) [Compound 8]	B (either (1) the compound was tested and less than 50 percent mortality was observed or (2) the compound was not tested)	B (either (1) the compound was tested and less than 50 percent mortality was observed or (2) the compound was not tested)	A (the compound was tested and at least 50 percent mortality was observed)		
COC1C(C)OC(ON=Cc2ccc(-c3ccn(-c4ccc(SC)cc4)n3)cc2)C(OC)C1OC (stereo not drawn) [Compound 9]	B (either (1) the compound was tested and less than 50 percent mortality was observed or (2) the compound was not tested)	B (either (1) the compound was tested and less than 50 percent mortality was observed or (2) the compound was not tested)	A (the compound was tested and at least 50 percent mortality was observed)		
COC1C(C)OC(ON=Cc2ccc(-c3ccn(-c4ccc(C(C)C)cc4)n3)cc2)C(OC)C1OC (stereo not drawn) [Compound 10]	B (either (1) the compound was tested and less than 50 percent mortality was observed or (2) the compound was not tested)	B (either (1) the compound was tested and less than 50 percent mortality was observed or (2) the compound was not tested)	A (the compound was tested and at least 50 percent mortality was observed)		
COC1C(C)OC(ON=Cc2ccc(-c3ccn(-c4ccc(C(C)(C)C)cc4)n3)cc2)C(OC)C1OC (stereo not drawn) [Compound 11]	B (either (1) the compound was tested and less than 50 percent mortality was observed or (2) the compound was not tested)	B (either (1) the compound was tested and less than 50 percent mortality was observed or (2) the compound was not tested)	A (the compound was tested and at least 50 percent mortality was observed)		

Reference: US8178658B2 (Dow AgroSciences, LLC, priority 2008, dated 2012)
